Laboratory results as given in patent US12172992B2, “Pyrimidines for degrading Bruton's tyrosine kinase” (AbbVie Inc., priority 2022, dated 2024).

Legend:
[1] = molecular target: BTK in mouse bone marrow (Mus musculus (Mouse), UniProt P35991); assay: Mouse Bone Marrow Assay (MSD ELISA of BTK degradation in bone marrow); type: in vivo; conditions: female C57BL/6J mice, single dose of Dose A, bone marrow collected after 24 hours
Procedure: Female C57BL/6J mice (Jackson Laboratories) were used for this study. Compounds or vehicle/control were prepped with EtOH; PEG-400; Phosal 53 MCT (10:30:60, v/v). Four mice were tested per compound or vehicle/control. On Day 1, mice were administered a single dose of Dose A. On Day 2 (after 24 hours), tissue (bone marrow) was collected from one hind leg per mouse.
An MSD (Meso Scale Discovery) ELISA (enzyme-linked immunosorbent assay) based assay was used to determine BTK degradation in mouse bone marrow. The following materials and equipment were used: 10% NP40 solution (nonionic polyoxyethylene surfactant, ThermoFisher, cat no. 28324); protease inhibitor mini tablet (Roche, cat no. 05 892 970 001); PhosphoSTOP™ tablet (Roche, cat no. 04 906 837 001); Pierce™ BCA Protein Assay Kit (Thermofisher, Cat No. 23225); Precellys® 2 mL lysing tube with 2.8 mm beads (VWR, cat no. 10032-756); Bertin Precellys® 24/Cryolys® cooling system; 96-well MSD streptavidin pre-coated plates (MSD, cat no. L15SA-1); MSD Blocker A (MSD, cat no. R93BA-4); capture antibody, biotinylated BTK mAb (BD Biosciences, cat no. 624008; custom order); primary detection antibody, BTK RpAb (rabbit polyclonal antibody, CST, cat no. 8547S, D3H5 clone); secondary detection antibody, anti-Rabbit-Sulfo-Tag (MSD, cat no. R32AB-1); read Buffer, 4× (MSD, cat no. R92TC-1); recombinant BTK protein (Thermofisher, cat no. PR5442A); MSD Tris Wash Buffer (10×) (MSD, cat no. R61TX-1); PBS (phosphate-buffered saline); deionized water (diH2O); Lysis Buffer [0.2% NP40 in PBS+Protease Inhibitor tablet (1 tablet/10 mL)+PhosphoSTOP tablet (1 tablet/10 mL)]; 3% MSD Blocker A [MSD Blocker A+450 mL diH2O+50 mL]; and 10×MSD Tris Wash Buffer.
Lysis buffer [(PBS+0.2% NP40+PI (protease inhibitor)+PhosphoSTOP)] was prepared and put on ice until it was fully cold. Ice cold lysis buffer […] was added to each Precellys® tube containing beads and bone marrow sample. Sample tubes were transferred into Precellys® machine and homogenized using 5000 rpm—2×20 seconds. The sample lysates were centrifuged at 14,000 rpm for 20 minutes at 4° C. after homogenizing.
The protein concentration was determined using Pierce™ BCA Protein Assay Kit following manufacturer's recommended protocol. The protein normalized working solution was prepared, using 30 μg protein per sample lysate for assay.
A 300 ng/ml working stock solution of recombinant BTK protein in lysis buffer was prepared, and the sample was serially diluted at 3-fold dilution (10-point assay, highest concentration was 300 ng/mL and lowest concentration was 0.015 ng/mL)
MSD plate coating: Coating antibody (biotinylated-BTK mAb) stock solution was prepared at 1 μg/mL in PBS buffer. 50 μL/well capture antibody (Biotinylated BTK mAb) solution was added, and the plates were shaken gently at ambient temperature for two hours. The plates were washed 3 times with 1×MSD Tris Wash Buffer in a plate washer (300 μL/well), and the plates were blocked with 3% MSD Blocker A (150 μL/well). The plates were incubated for an additional 1-2 hours at ambient temperature with gentle shaking. The plates were washed 3 times with 1×MSD wash buffer using plate washer. Bone marrow lysates (30 μg) at a final volume of 50 μL/well were added into the plates. The serially diluted standard samples were added to the same plates at a final volume of 50 μL/well. The plates were incubated overnight at 4° C. with gentle shaking.
The plates were washed three times with 1×MSD wash buffer (prepared from 10× concentration buffer) using plate washer. Primary detection antibody at 50 μL/well was added (BTK RpAb; 1:1000 dilution in 1% MSD Blocker A). The plates were incubated for two hours at ambient temperature with gentle shaking. The plates were washed three times with 1×MSD wash buffer using plate washer. Anti-Rabbit-SULFO-TAG secondary antibodies (50 μl/well) were added, 1:500 diluted in 1% MSD Blocker A, and the plates were incubated for one to two hours at ambient temperature. […]

[2] = molecular target: BTK protein in human whole blood (Homo sapiens (Human), UniProt Q06187); assay: Btk protein in human whole blood MSD ELISA based assay (BTK degradation); type: cell-based; conditions: 6 hours, maximum BTK degradation compared to DMSO only treated samples, read-out: hWB BTK dMax (%)
Procedure: Btk protein degradation was tested using an Meso Scale Discovery-ELISA system (MSD-ELISA): (1) Test compounds were added to human whole blood; (2) human whole blood cells treated with test compounds were lysed; (3) lysed cells were treated with capture antibody, an antibody to Btk; (4) lysed cells were treated with […] to Btk; and (5) lysed cells were treated with anti-mouse antibody (tagged).
Specifically, about 80 μl of fresh human whole blood from healthy donors was transferred into each well of a 96-well V-bottom plate (Costar, Cat No. 3894). Using a TECAN™ D300e Digital Dispenser (Tecan)), 1:4 serially diluted compounds [(8 pt assay) in DMSO solution (final 0.2%) starting at 3 μM top concentration], were added in duplicate. Thereafter, plates were placed in a 37° C. incubator and incubated for 6 hours.
At the end of incubation, 80 μl of 2×CST lysis buffer (Cell Signaling Technology, Cat No. 9803), prepared from a 10× stock solution, was added per well to lyse the blood. Plates were then sealed with a plate sealer and the samples were frozen overnight at −80° C.
Total amount of BTK protein remaining in the blood samples after compound treatment was measured using MSD-ELISA. After thawing the frozen plates, blood lysates were mixed thoroughly and transferred to small spot high-bind MSD plates (Meso Scale Discovery, Cat No. L45XB-3) and coated with capturing antibody, rabbit anti-human BTK (D3H5) (Cell Signaling Technology, Cat No. 8547CF). Thereafter, primary detection antibody, mouse anti-human BTK monoclonal antibody, (BD Biosciences, Cat No. 611117) and secondary detection antibody, anti-mouse SULFO-TAG (Meso Scale Discovery, Cat No. R32AC-1) were added. The assay plates were read on an MSD S600 plate reader by the addition of 2×MSD read buffer (Meso Scale Discovery, R92TC-1). All reagent transfers, including blood lysis, was conducted using a Biomed i7 liquid handler. From the dose response curves, DC50 values were calculated by averaging data from duplicate experiments. and Curve fitting was done by non-linear regression using GraphPad Prism. The DC50 values are reported in Table 2 in the hWB BTK DC50 (nM) column The Dmax values represent the maximum amount of BTK degradation observed upon compound treatment compared to DMSO only treated samples. The dMax (%) values are reported in Table 2 in the hWB BTK dMax (%) column.

Chain of BTK protein in human whole blood (Q06187 whole entry): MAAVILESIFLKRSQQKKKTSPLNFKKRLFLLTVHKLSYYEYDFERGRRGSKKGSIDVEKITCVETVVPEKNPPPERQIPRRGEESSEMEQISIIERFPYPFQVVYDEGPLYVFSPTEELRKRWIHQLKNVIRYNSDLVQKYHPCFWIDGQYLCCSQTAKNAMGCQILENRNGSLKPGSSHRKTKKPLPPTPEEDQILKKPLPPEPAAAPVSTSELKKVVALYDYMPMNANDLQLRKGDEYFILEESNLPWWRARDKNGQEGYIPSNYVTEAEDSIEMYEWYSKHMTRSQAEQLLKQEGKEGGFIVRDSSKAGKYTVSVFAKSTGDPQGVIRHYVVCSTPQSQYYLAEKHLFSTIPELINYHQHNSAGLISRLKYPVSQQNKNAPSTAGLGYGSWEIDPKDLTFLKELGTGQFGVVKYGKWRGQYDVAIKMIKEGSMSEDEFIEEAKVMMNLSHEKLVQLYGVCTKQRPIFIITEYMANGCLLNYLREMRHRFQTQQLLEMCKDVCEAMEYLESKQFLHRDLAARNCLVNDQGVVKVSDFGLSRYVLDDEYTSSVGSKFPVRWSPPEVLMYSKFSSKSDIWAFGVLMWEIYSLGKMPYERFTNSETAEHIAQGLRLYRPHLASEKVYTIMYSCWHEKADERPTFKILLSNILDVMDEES
Chain of BTK in mouse bone marrow (P35991 whole entry): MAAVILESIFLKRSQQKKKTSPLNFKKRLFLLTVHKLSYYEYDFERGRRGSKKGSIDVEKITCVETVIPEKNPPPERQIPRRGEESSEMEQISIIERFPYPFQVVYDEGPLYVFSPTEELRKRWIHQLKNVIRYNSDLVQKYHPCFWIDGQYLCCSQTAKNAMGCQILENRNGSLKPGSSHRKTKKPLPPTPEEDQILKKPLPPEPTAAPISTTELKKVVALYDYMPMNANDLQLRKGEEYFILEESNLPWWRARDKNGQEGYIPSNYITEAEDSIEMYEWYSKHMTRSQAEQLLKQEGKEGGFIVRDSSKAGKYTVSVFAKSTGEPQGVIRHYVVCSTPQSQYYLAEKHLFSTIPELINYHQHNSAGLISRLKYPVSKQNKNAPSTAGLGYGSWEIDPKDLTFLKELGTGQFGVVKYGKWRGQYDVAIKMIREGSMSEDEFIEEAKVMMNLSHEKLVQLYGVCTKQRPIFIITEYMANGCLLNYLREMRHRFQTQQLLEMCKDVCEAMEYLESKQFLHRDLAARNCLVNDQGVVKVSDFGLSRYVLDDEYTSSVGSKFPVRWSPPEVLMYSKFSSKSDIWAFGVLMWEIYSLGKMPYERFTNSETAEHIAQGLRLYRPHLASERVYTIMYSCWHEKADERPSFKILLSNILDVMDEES

| Structure (SMILES) | Mouse Bone Marrow (%) (% remaining BTK, vehicle versus treated) [1] | Dmax [2] |
| --- | --- | --- |
| Cc1cc(-c2cc(Nc3ccc(N4CCN(CCc5ccc(N6CCC(=O)NC6=O)cc5)CC4)cn3)ncn2)ccc1[C@@H](C)NC(=O)c1nc(C(C)(C)C)no1 [Example 3, 3-tert-butyl-N-{(1R)-1-[4-(6-{[5-(4-{2-[4-(2,4-dioxo-1,3-diazinan-1-yl)phenyl]ethyl}piperazin-1-yl)pyridin-2-yl]amino}pyrimidin-4-yl)-2-methylphenyl]ethyl}-1,2,4-oxadiazole-5-carboxamide] | 22% | 99.2% |
| Cc1cc(-c2cc(Nc3ccc(N4CCN(CCc5ccc(N6CCC(=O)NC6=O)cc5)C[C@@H]4C)cc3)ncn2)ccc1[C@@H](C)NC(=O)c1nc(C(C)(C)C)no1 [Example 18] | 25% | 99.5% |
| Cc1c([C@@H](C)NC(=O)c2nc(C(C)(C)C)no2)ccc(-c2cc(Nc3ccc(N4CCN(CCc5ccc(N6CCC(=O)NC6=O)cc5)C[C@@H]4C)cn3)ncn2)c1F [Example 10, 3-tert-butyl-N-[(1R)-1-{4-[6-({5-[(2S)-4-{2-[4-(2,4-dioxo-1,3-diazinan-1-yl)phenyl]ethyl}-2-methylpiperazin-1-yl]pyridin-2-yl}amino)pyrimidin-4-yl]-3-fluoro-2-methylphenyl}ethyl]-1,2,4-oxadiazole-5-carboxamide] | 9% | 98.5% |
| CC[C@@H]1CN(CCc2ccc(N3CCC(=O)NC3=O)cc2)CCN1c1ccc(Nc2cc(-c3ccc([C@@H](C)NC(=O)c4nc(C(C)(C)C)no4)c(C)c3)ncn2)nc1 [Example 8, 3-tert-butyl-N-[(1R)-1-{4-[6-({5-[(2R)-4-{2-[4-(2,4-dioxo-1,3-diazinan-1-yl)phenyl]ethyl}-2-ethylpiperazin-1-yl]pyridin-2-yl}amino)pyrimidin-4-yl]-2-methylphenyl}ethyl]-1,2,4-oxadiazole-5-carboxamide] | 30% | 98.6% |
| Cc1cc(-c2cc(Nc3ccc(N4CCN(CCc5ccc(N6CCC(=O)NC6=O)cc5)CC4)cn3)ncn2)c(F)cc1[C@@H](C)NC(=O)c1nc(C(C)(C)C)no1 [Example 12, 3-tert-butyl-N-{(1R)-1-[4-(6-{[5-(4-{2-[4-(2,4-dioxo-1,3-diazinan-1-yl)phenyl]ethyl}piperazin-1-yl)pyridin-2-yl]amino}pyrimidin-4-yl)-5-fluoro-2-methylphenyl]ethyl}-1,2,4-oxadiazole-5-carboxamide] | 17% | 99.8% |
| C[C@@H](NC(=O)c1nc(C(C)(C)C)no1)c1ccc(-c2cc(Nc3ccc(N4CCN(CCc5ccc(N6CCC(=O)NC6=O)cc5)C[C@@H]4C)cn3)ncn2)cc1F [Example 17, 3-tert-butyl-N-[(1R)-1-{4-[6-({5-[(2S)-4-{2-[4-(2,4-dioxo-1,3-diazinan-1-yl)phenyl]ethyl}-2-methylpiperazin-1-yl]pyridin-2-yl}amino)pyrimidin-4-yl]-2-fluorophenyl}ethyl]-1,2,4-oxadiazole-5-carboxamide] | – | 99.6% |
| COC[C@H]1CN(CCc2ccc(N3CCC(=O)NC3=O)cc2)CCN1c1ccc(Nc2cc(-c3ccc([C@@H](C)NC(=O)c4nc(C(C)(C)C)no4)c(C)c3)ncn2)nc1 [Example 15, 3-tert-butyl-N-[(1R)-1-{4-[6-({5-[(2R)-4-{2-[4-(2,4-dioxo-1,3-diazinan-1-yl)phenyl]ethyl}-2-(methoxymethyl)piperazin-1-yl]pyridin-2-yl}amino)pyrimidin-4-yl]-2-methylphenyl}ethyl]-1,2,4-oxadiazole-5-carboxamide] | – | 99.9% |
| Cc1cc(-c2cc(Nc3ccc(N4CCN(CCc5ccc(N6CCC(=O)NC6=O)cc5)C[C@H]4C)cn3)ncn2)ccc1[C@@H](C)NC(=O)c1nc(C(C)(C)C)no1 [Example 2, 3-tert-butyl-N-[(1R)-1-{4-[6-({5-[(2R)-4-{2-[4-(2,4-dioxo-1,3-diazinan-1-yl)phenyl]ethyl}-2-methylpiperazin-1-yl]pyridin-2-yl}amino)pyrimidin-4-yl]-2-methylphenyl}ethyl]-1,2,4-oxadiazole-5-carboxamide] | 12% | 98.8% |
| C[C@@H](NC(=O)c1nc(C(C)(C)C)no1)c1ccc(-c2cc(Nc3ccc(N4CCN(CCc5ccc(N6CCC(=O)NC6=O)cc5)C[C@@H]4C)cn3)ncn2)cc1C(F)(F)F [Example 16, 3-tert-butyl-N-[(1R)-1-{4-[6-({5-[(2S)-4-{2-[4-(2,4-dioxo-1,3-diazinan-1-yl)phenyl]ethyl}-2-methylpiperazin-1-yl]pyridin-2-yl}amino)pyrimidin-4-yl]-2-(trifluoromethyl)phenyl}ethyl]-1,2,4-oxadiazole-5-carboxamide] | – | 100% |
| Cc1cc(-c2cc(Nc3ccc(CCN4CCN(c5ccc(N6CCC(=O)NC6=O)cc5)CC4)cn3)ncn2)ccc1[C@@H](C)NC(=O)c1nc(C(C)(C)C)no1 [Example 19] | 51% | 100% |
| Cc1c([C@@H](C)NC(=O)c2nc(C(C)(C)C)no2)ccc(-c2cc(Nc3ccc(N4CCN(CCc5ccc(N6CCC(=O)NC6=O)cc5)CC4)cn3)ncn2)c1F [Example 11, 3-tert-butyl-N-{(1R)-1-[4-(6-{[5-(4-{2-[4-(2,4-dioxo-1,3-diazinan-1-yl)phenyl]ethyl}piperazin-1-yl)pyridin-2-yl]amino}pyrimidin-4-yl)-3-fluoro-2-methylphenyl]ethyl}-1,2,4-oxadiazole-5-carboxamide] | 29% | 97.7% |
